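All cell lines were grown in 96-well plates and treated with compound for 48 hours. The concentration for 50% growth inhibition is given as GI50.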 The source made the active and inactive calls. No stated cut-off is given here; in the data, active = GI50 up to about 1.1 µM and inactive = higher.
What was measured:
Assay in all cases: inhibition of tumour cell growth, NCI panel, 48 h
[1] = system: KM-20L2
[2] = system: LXFL 529
[3] = system: DMS-273
[4] = system: XF498
[5] = system: DMS-114
[6] = system: DLD-1
[7] = system: HOP-18
[8] = system: SNB-78
[9] = system: RXF 631

With `CCNC(=O)OCc1c(COC(=O)NCC)c(-c2ccc(Cl)c(Cl)c2)n2c1CCC2` the GI50 [1] was 16.9 µM (inactive), the GI50 [2] was 15.3 µM (inactive) and the GI50 [3] was 9.48 µM (inactive). For the same compound, the GI50 [4] was 16.1 µM (inactive), the GI50 [5] was 9.02 µM (inactive) and the GI50 [6] was 11.8 µM (inactive).

In the case of `Cc1ccc(C2=Nc3ccccc3NC(=O)C2)cc1`, the GI50 [1] is reported as > 100 µM (inactive), the GI50 [2] is reported as > 100 µM (inactive) and the GI50 [3] is reported as > 100 µM (inactive). For the same compound, the GI50 [4] was 35.9 µM (inactive), the GI50 [7] was > 100 µM (inactive) and the GI50 [5] was 91.2 µM (inactive). For the same compound, the GI50 [6] was > 100 µM (inactive) and the GI50 [8] was 72.6 µM (inactive).

For `N#CCC(=O)N/N=C(\CCN1CCCC1)CC(c1ccccc1)c1c(O)c2ccccc2oc1=O` (stereo not given), the GI50 [1] was > 100 µM (inactive), the GI50 [2] was > 100 µM (inactive) and the GI50 [4] was > 100 µM (inactive). The GI50 [9] was > 100 µM (inactive), the GI50 [7] was > 100 µM (inactive) and the GI50 [6] was > 100 µM (inactive).

With `CC1(C)C(=O)OC(n2cc(F)c(=O)[nH]c2=O)C1=O` (stereo not given) the GI50 [1] was > 100 µM (inactive), the GI50 [2] was > 100 µM (inactive) and the GI50 [4] was > 100 µM (inactive). The GI50 [7] was > 100 µM (inactive), the GI50 [5] was > 100 µM (inactive) and the GI50 [6] was > 100 µM (inactive). For the same compound, the GI50 [8] was > 100 µM (inactive).

`CC1CC2OC(=O)CC2C[C@@H]1O[Si](C)(C)C(C)(C)C` (stereo not given in full) was tested, and the GI50 [1] was 46.3 µM (inactive), the GI50 [2] was 68.7 µM (inactive) and the GI50 [3] was 33.7 µM (inactive). For the same compound, the GI50 [9] was 44.5 µM (inactive), the GI50 [7] was > 100 µM (inactive) and the GI50 [5] was 28 µM (inactive). For the same compound, the GI50 [6] was 83.4 µM (inactive) and the GI50 [8] was > 100 µM (inactive).

For `CCC1=CCN(c2cc(C)ccn2)OC1c1ccccc1` (stereo not given), the GI50 [1] was 39.2 µM (inactive), the GI50 [2] was 27 µM (inactive) and the GI50 [3] was 43.6 µM (inactive). For the same compound, the GI50 [4] was 22.9 µM (inactive), the GI50 [9] was 25.4 µM (inactive) and the GI50 [7] was > 100 µM (inactive). For the same compound, the GI50 [5] was 56.2 µM (inactive), the GI50 [6] was 34 µM (inactive) and the GI50 [8] was 43.9 µM (inactive).

For `COc1ccc(-c2cc(O)c3cc4c(cc3n2)OCO4)cc1`, the GI50 [1] was > 100 µM (inactive), the GI50 [2] was > 100 µM (inactive) and the GI50 [3] was > 100 µM (inactive). The GI50 [4] was > 100 µM (inactive), the GI50 [5] was > 100 µM (inactive) and the GI50 [6] was > 100 µM (inactive).

In the case of `C=CCCOC(=O)CO[N+](=O)[O-]`, the GI50 [1] is reported as > 100 µM (inactive), the GI50 [2] is reported as > 100 µM (inactive) and the GI50 [3] is reported as > 100 µM (inactive). For the same compound, the GI50 [4] was > 100 µM (inactive), the GI50 [5] was > 100 µM (inactive) and the GI50 [6] was > 100 µM (inactive).

With `CC(N)Cc1ccc(F)cc1` (stereo not given) the GI50 [1] was > 100 µM (inactive), the GI50 [2] was > 100 µM (inactive) and the GI50 [3] was > 100 µM (inactive). The GI50 [9] was > 100 µM (inactive), the GI50 [7] was > 100 µM (inactive) and the GI50 [5] was > 100 µM (inactive). For the same compound, the GI50 [6] was > 100 µM (inactive) and the GI50 [8] was > 100 µM (inactive).

With `COC(=O)C(Cc1nc2ccccc2nc1O)/C(=N\NC(C)(C)C)C(=O)Nc1c(C)cc(Br)cc1C` (stereo not given) the GI50 [2] was 21.1 µM (inactive), the GI50 [5] was 24.7 µM (inactive) and the GI50 [6] was 22.2 µM (inactive). For the same compound, the GI50 [8] was 22.6 µM (inactive).

In the case of `NC(=O)COc1ccccc1`, the GI50 [1] is reported as > 100 µM (inactive), the GI50 [2] is reported as > 100 µM (inactive) and the GI50 [3] is reported as > 100 µM (inactive). For the same compound, the GI50 [4] was > 100 µM (inactive), the GI50 [9] was > 100 µM (inactive) and the GI50 [5] was > 100 µM (inactive). The GI50 [6] was > 100 µM (inactive) and the GI50 [8] was > 100 µM (inactive).

For `CO/N=C/c1cc(OC)c(OC)c(OC)c1`, the GI50 [1] was > 100 µM (inactive), the GI50 [2] was > 100 µM (inactive) and the GI50 [3] was > 100 µM (inactive). For the same compound, the GI50 [4] was > 100 µM (inactive), the GI50 [9] was > 100 µM (inactive) and the GI50 [7] was > 100 µM (inactive). The GI50 [5] was > 100 µM (inactive), the GI50 [6] was > 100 µM (inactive) and the GI50 [8] was > 100 µM (inactive).

For `CN1CCC(C(=O)NNc2ccccc2)CC1`, the GI50 [1] was 1.69 µM (inactive), the GI50 [2] was 0.9 µM (active) and the GI50 [3] was 3.1 µM (inactive). The GI50 [4] was > 100 µM (inactive), the GI50 [7] was > 61.5 µM (inactive) and the GI50 [5] was 9.31 µM (inactive). For the same compound, the GI50 [6] was 12.8 µM (inactive) and the GI50 [8] was > 100 µM (inactive).

With `CC[C@@]1(O)C(=O)OCc2c1cc1n(c2=O)Cc2cc3cc(OC)ccc3nc2-1` the GI50 [1] was 0.0604 µM (active), the GI50 [2] was 0.144 µM (active) and the GI50 [3] was 0.01 µM (active). The GI50 [5] was 0.01 µM (active).

With `C=CC1[C@H]2COC(C)(C)O[C@@H]2CC(=O)C1(C)C` (stereo not given in full) the GI50 [1] was > 100 µM (inactive), the GI50 [2] was > 100 µM (inactive) and the GI50 [3] was > 100 µM (inactive). The GI50 [4] was > 100 µM (inactive), the GI50 [7] was > 100 µM (inactive) and the GI50 [5] was > 100 µM (inactive). The GI50 [6] was > 100 µM (inactive) and the GI50 [8] was > 100 µM (inactive).

For `COc1ccc(/C=C2\Cc3ccccc3C2=O)cc1OC`, the GI50 [1] was > 100 µM (inactive), the GI50 [2] was 75 µM (inactive) and the GI50 [4] was > 100 µM (inactive). For the same compound, the GI50 [5] was 48.6 µM (inactive), the GI50 [6] was > 100 µM (inactive) and the GI50 [8] was > 100 µM (inactive).

With `NC1=NC(c2ccccc2)CC(c2cc(Cl)ccc2O)=N1` (stereo not given) the GI50 [1] was 17.4 µM (inactive), the GI50 [2] was 15 µM (inactive) and the GI50 [3] was 13 µM (inactive). For the same compound, the GI50 [4] was 19.6 µM (inactive), the GI50 [7] was 17.7 µM (inactive) and the GI50 [5] was 12.7 µM (inactive). The GI50 [6] was 13.2 µM (inactive) and the GI50 [8] was 19.5 µM (inactive).

For `Nc1nc(N)c(CCCCc2ccccc2)c(C=O)n1`, the GI50 [1] was 30.6 µM (inactive), the GI50 [3] was 17.2 µM (inactive) and the GI50 [9] was 43.5 µM (inactive). For the same compound, the GI50 [7] was 40.8 µM (inactive), the GI50 [5] was 15.9 µM (inactive) and the GI50 [6] was 20.1 µM (inactive). For the same compound, the GI50 [8] was 22.9 µM (inactive).

For `C=C1C(=O)O[C@H]2C[C@@H](C)[C@@H]3CC(=O)OC[C@@]3(C)CC12` (stereo not given in full), the GI50 [1] was 18.5 µM (inactive), the GI50 [3] was 28.6 µM (inactive) and the GI50 [7] was 36.5 µM (inactive). For the same compound, the GI50 [6] was 23.4 µM (inactive).

`O=C1N=C2N=C(c3ccc(Cl)cc3)N(c3ccc(Cl)cc3)N2Sc2ccccc21` was tested, and the GI50 [1] was > 100 µM (inactive), the GI50 [2] was > 100 µM (inactive) and the GI50 [3] was 67.1 µM (inactive). The GI50 [4] was 40.9 µM (inactive), the GI50 [7] was > 100 µM (inactive) and the GI50 [5] was > 100 µM (inactive). For the same compound, the GI50 [6] was > 100 µM (inactive) and the GI50 [8] was > 100 µM (inactive).

With `CSC1NC=Nc2c1sc(=S)n2-c1ccccc1` (stereo not given) the GI50 [1] was > 100 µM (inactive), the GI50 [2] was > 100 µM (inactive) and the GI50 [3] was > 100 µM (inactive). For the same compound, the GI50 [4] was > 100 µM (inactive), the GI50 [7] was > 100 µM (inactive) and the GI50 [5] was > 100 µM (inactive). For the same compound, the GI50 [6] was > 100 µM (inactive) and the GI50 [8] was 43.5 µM (inactive).

`CC(C)=CCC/C(C)=C/CC/C(C)=C/CCC1(C)CCC([C@H](C)C(=O)O)OO1.CC1=C(CC/C(C)=C/CCC2(C)CCC([C@H](C)C(=O)O)OO2)C(C)(C)CCC1` (stereo not given in full) was tested, and the GI50 [1] was > 100 µM (inactive), the GI50 [2] was > 100 µM (inactive) and the GI50 [3] was > 100 µM (inactive). For the same compound, the GI50 [5] was > 100 µM (inactive), the GI50 [6] was > 100 µM (inactive) and the GI50 [8] was > 100 µM (inactive).

`CCOC(=O)[C@H](Cc1ccccc1)NC(=O)c1nc[nH]c1[N+](=O)[O-]` was tested, and the GI50 [2] was > 100 µM (inactive), the GI50 [3] was > 100 µM (inactive) and the GI50 [5] was > 100 µM (inactive). For the same compound, the GI50 [6] was > 100 µM (inactive).

In the case of `CC(=O)Oc1ccc(CO)cc1OC(C)=O`, the GI50 [1] is reported as > 100 µM (inactive), the GI50 [2] is reported as > 100 µM (inactive) and the GI50 [3] is reported as > 100 µM (inactive). The GI50 [4] was 92.9 µM (inactive), the GI50 [9] was 63.2 µM (inactive) and the GI50 [7] was > 100 µM (inactive). For the same compound, the GI50 [5] was 40.3 µM (inactive), the GI50 [6] was > 100 µM (inactive) and the GI50 [8] was > 100 µM (inactive).

Reference: ChEMBL document CHEMBL1201862, “PubChem BioAssay data set” (2004)
